Reference: paper PMC7932537, “Quantitative profiling of protease specificity” (PLoS Computational Biology, 2021)

System: MMP-2
Experiment: Substrate phage display with NGS: relative probability (RP) of P3-P1' tetramer clusters;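 as to relative probability (RP): ratio of tetramer probability after protease selection to that in naive phage library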
Type: biochemical, human
Conditions: for avg_RP: MMP2 - no binning; for relative_probability: tetramer clusters unique to the MMP-2 selectome, MMP-2 RP
[1] = average relative probability of the P3-P1' tetramer, redundant tetramers have been averaged out
[2] = average relative probability (RP) of the P3-P1' tetramer, redundant tetramers have been averaged out
[3] = average relative probability of the tetramer, redundant tetramers averaged out

Substance | avg_RP [1] | avg_RP [3] | other results
SGNL | 12.7361 |  | 
VNYL | 8.4267 |  | 
AWHL |  |  | avg_RP [2]: 5.5662
TRNL | 12.3403 |  | 
LGCL | 12.7261 |  | 
ALPL |  | 22.1772 | 
VQLL | 8.0197 |  | 
PWGM |  | 25.1614 | 
YFPL | 0.1432 |  | 
MGWI [P3-P1' tetramer cluster] |  |  | relative_probability: 29.72
ASFL | 10.8605 |  | 
MSYL |  | 18.2293 | 
YAHM |  |  | avg_RP [2]: 12.8446
PWFL | 12.628 |  | 
SARL |  |  | avg_RP [2]: 4.5839
LASQ | 21.0724 |  | 
PQMI |  | 16.6558 | 
GFQL | 0.0467 |  | 
ANAL |  | 20.3526 | 
SGQL | 1.0305 |  | 
VRNV |  | 5.0406 | 
PFKY |  | 2.0624 | 

Substance | avg_RP [1] | avg_RP [3] | other results
PRNT |  | 2.5391 | 
VLNM | 19.025 |  | 
TMWL |  |  | avg_RP [2]: 5.1973
LLNM | 13.7728 |  | 
GWAL | 0.0916 |  | 
PLKV |  | 0.2165 | 
VRLL |  | 4.002 | 
VWHL |  |  | avg_RP [2]: 10.1663
ANSI |  |  | avg_RP [2]: 0.424
WRAY |  | 17.4833 | 
VAAV |  | 19.031 | 
SGML | 1.3118 |  | 
VNRI |  |  | avg_RP [2]: 0
SLAW |  | 18.2943 | 
VWAL | 12.7502 |  | 
VWWQ | 0.2844 |  | 
PRYW | 20.9965 |  | 
PYKL |  | 15.5683 | 
AQHI |  |  | avg_RP [2]: 7.3783
GAHL |  | 8.4636 | 
VVWY |  | 9.9375 | 
PHGF |  | 21.975 | 

Substance | avg_RP [1] | avg_RP [3] | other results
LWKL | 0 |  | 
VHRL | 1.5304 |  | 
GWRL |  |  | avg_RP [2]: 0.1031
GLYL |  | 0.0762 | 
PHMM | 14.968 |  | 
VHSF | 0.0855 |  | 
VRAH |  | 14.8064 | 
SWSL | 0.0547 |  | 
SWAW | 0.0563 |  | 
LNST |  | 0.4784 | 
GYHL |  | 0.0815 | 
LQNL | 27.5155 |  | 
WSSL |  | 16.6561 | 
VFSI |  | 0.2237 | 
FAHL |  | 19.6504 | 
PWSL |  | 28.5684 | 
TRWL |  | 15.1455 | 
FLHM | 0.2069 |  | 
VWAI |  | 3.2193 | 
PEML | 16.0599 |  | 
GRAL |  | 7.9443 | 
MGRL |  | 18.6873 | 

Substance | avg_RP [1] | avg_RP [3] | other results
PFLL |  | 9.0855 | 
PNYL |  | 17.2533 | 
PFML |  | 19.624 | 
AGRL |  |  | avg_RP [2]: 3.4801
VRAL |  | 30.4312 | 
PRWM | 32.3694 |  | 
MGHL |  | 26.7019 | 
GSGL |  | 1.9698 | 
QQGL |  | 6.4014 | 
FATL |  |  | avg_RP [2]: 9.1497
VWHI |  | 1.9312 | 
SHGL |  | 0.2009 | 
AIPL |  | 24.8904 | 
ALDL |  |  | avg_RP [2]: 2.4602
VRAI |  | 26.2338 | 
TFHL |  | 0.1298 | 
AMGL |  | 23.7576 | 
VDQL |  |  | avg_RP [2]: 0.0432
LGML | 29.0922 |  | 
LGMM | 22.231 |  | 
IEYL |  | 5.366 | 
PTAL |  | 32.8941 | 

Substance | avg_RP [1] | avg_RP [3] | other results
ASRL |  |  | avg_RP [2]: 6.8948
VYML | 5.0943 |  | 
PSWS |  | 13.1501 | 
FAPG |  |  | relative probability (RP) (tetramer annotation of MMP-2 cleavage sites in physiologic substrates from MEROPS): 0.08
PVWM |  | 25.8126 | 
PKLI |  | 0.9254 | 
MANL [P3-P1' tetramer cluster] |  |  | relative_probability: 32.42
PLAF |  | 31.4142 | 
ALNM |  |  | avg_RP [2]: 13.7479
AKHL |  |  | avg_RP [2]: 9.4662
FSHM | 11.0227 |  | 
IRML |  | 12.7446 | 
PWHI |  | 10.946 | 
LRNI | 19.0698 |  | 
VRSL | 12.3051 |  | 
PLPW |  |  | avg_RP [2]: 30.0861
YMNI | 0 |  | 
PLAL | 34.4921 |  | 
SLPL | 8.6373 |  | 
GFAL |  |  | avg_RP [2]: 0.4341
VLPL |  |  | avg_RP [2]: 20.3086
PMQL | 27.6586 |  | 

Substance | avg_RP [1] | avg_RP [3] | other results
IAYL | 27.9862 |  | 
AQAL | 22.7358 |  | 
VDYL | 1.426 |  | 
AFNL | 16.2959 |  | 
PRSY |  | 30.3745 | 
PMGL |  | 34.7865 | 
GFSL | 0.0975 |  | 
AQMI |  |  | avg_RP [2]: 2.3525
ILHL |  |  | avg_RP [2]: 15.3505
PWKL |  | 9.9628 | 
WRAL |  | 22.4074 | 
AYHM | 3.7603 |  | 
FAAL | 18.8584 |  | 
INQL |  |  | avg_RP [2]: 1.5518
IWAL |  |  | avg_RP [2]: 5.7953
PHHL |  | 27.4742 | 
WLAL | 1.2175 |  | 
ARKL |  | 0 | 
LDWM | 7.0331 |  | 
FRHL |  | 3.942 | 
MRHL | 14.413 |  | 
PLNS |  | 18.9358 | 
